Five molecules from US7348342B2, “Heterocyclic compounds process for their preparation and pharmaceutical compositions containing them and their use in medicine” (Cadila Healthcare Limited, priority 2002, dated 2008) can be followed below.

In the test the test system is carrageenan foot pad edema. The test can be described thus: carrageenan foot pad edema test. The class given is in vivo. The following applies: Wistar rats, dose 30 mg/kg by oral gavage 1 h before carrageenan; for % Inhibition of paw edema 1 hour: 1 hour after carrageenan injection; for % Inhibition of paw edema 3 hour: 3 hour after carrageenan injection. An excerpt:
The compounds of the present invention have been tested for their biological activities by carrageenan foot pad edema test in male as well as female Wistar rats according to standard protocol described in literature (Winter et. al, Proc. Soc. Exp. Biol. Med., 111, 544, (1962); Otterness and Bliven, Laboratory Models for Testing NSAIDS, in Non-Steroidal Anti-inflammatory Drugs, (J. Lombardino, ed. 1985)). The protocol followed was as described below:
Wistar rats obtained from the Experimental Animal Facility of Zydus Research. Centre. Animals were housed in an environmentally controlled rooms with food and water available ad-libitum. All the experimental protocols were approved by the Institutional Animal Ethics Committee. Animals were divided into different groups, each group comprising of five-six animals. After an overnight fast, animals of the control group received vehicle only by oral gavage whereas animals of the other groups received different doses of the test substance(s). Each rat received same volume of the formulation i.e. 2 ml/kg on body weight basis. One hour after administration of the vehicle or test substance, all the animals received sub-planter injection of carrageenan (1% w/v in saline). Paw volume was measured at 0, 1, 3 and 5 hour after carrageenan injection. Anti-inflammatory activity, expressed as % Inhibition in paw swelling was calculated by measuring change in paw volume at different time intervals after carrageenan injection vs corresponding 0 hr values using the following formula.
[formula] Where • PVC=Average change in Paw volume of control animals • PVT=Average change in Paw volume of treated animals.
For orientation: The carrageenan paw model is a standard test of acute inflammation.

Turning to “3-(4-Methylphenyl)-4-(3-fluoro-4-methylsulfoximinylphenyl-5H-furan-2-one [Compound 112]”, the “% Inhibition of paw edema 1 hour” value turned out to be 57% and the “% Inhibition of paw edema 3 hour” value was 40%.

For the molecule “5-Chloro-3-(4-methylsulfoximinylphenyl)-[2,3′]bipyridinyl [Compound 97]”, the “% Inhibition of paw edema 1 hour” value is reported as 13% and the “% Inhibition of paw edema 3 hour” value was 36%.

With “3-(4-Methoxyphenyl)-5-methyl-4-(4-methylsulfoximinylphenyl)-isoxazole [Compound 154]”, the “% Inhibition of paw edema 1 hour” value came out at 46% and the “% Inhibition of paw edema 3 hour” value stood at 47%.

Take `Cc1ccc(-c2cc(C(F)(F)F)nn2-c2ccc(S(N)(=O)=O)cc2)cc1` [Celecoxib, reference compound]: the “% Inhibition of paw edema 1 hour” value is listed as 33% and the “% Inhibition of paw edema 3 hour” value came to 26%.

Consider “5-methyl-4-(4-methylsulfoximinylphenyl)-3-phenyl-isoxazole [Compound 153]”, for which the “% Inhibition of paw edema 1 hour” value worked out at 42% and the “% Inhibition of paw edema 3 hour” value stood at 43%.
